Laboratory results: publication PMC7095208 (Nature, 2014)
Like-named read-outs stand apart in the source and are kept apart here.

Columns and labels:
SUDV Boniface = assay: microbe, parasite or virus in culture; format: cell-based; conditions: Sudan ebolavirus, HeLa
human lymphocytes = conditions: 787 µM
MARV Musoke = assay: organism not typed; format: cell-based, Marburg virus; conditions: HeLa
in vivo [1] = conditions: Sprague-Dawley, rat
MARV Angola = assay: organism not typed; format: cell-based, Marburg virus; conditions: HeLa
[2] = system: Rift Valley fever virus (ZH501); conditions: mouse, in vivo
in vivo [3] = conditions: cynomolgus monkey, im
hERG ion channel = hERG ion channel (Homo sapiens, UniProt Q12809); assay: hERG ion channel current; format: biochemical; conditions: 30 µM; data not shown
Sequence of hERG ion channel (Q12809 whole entry): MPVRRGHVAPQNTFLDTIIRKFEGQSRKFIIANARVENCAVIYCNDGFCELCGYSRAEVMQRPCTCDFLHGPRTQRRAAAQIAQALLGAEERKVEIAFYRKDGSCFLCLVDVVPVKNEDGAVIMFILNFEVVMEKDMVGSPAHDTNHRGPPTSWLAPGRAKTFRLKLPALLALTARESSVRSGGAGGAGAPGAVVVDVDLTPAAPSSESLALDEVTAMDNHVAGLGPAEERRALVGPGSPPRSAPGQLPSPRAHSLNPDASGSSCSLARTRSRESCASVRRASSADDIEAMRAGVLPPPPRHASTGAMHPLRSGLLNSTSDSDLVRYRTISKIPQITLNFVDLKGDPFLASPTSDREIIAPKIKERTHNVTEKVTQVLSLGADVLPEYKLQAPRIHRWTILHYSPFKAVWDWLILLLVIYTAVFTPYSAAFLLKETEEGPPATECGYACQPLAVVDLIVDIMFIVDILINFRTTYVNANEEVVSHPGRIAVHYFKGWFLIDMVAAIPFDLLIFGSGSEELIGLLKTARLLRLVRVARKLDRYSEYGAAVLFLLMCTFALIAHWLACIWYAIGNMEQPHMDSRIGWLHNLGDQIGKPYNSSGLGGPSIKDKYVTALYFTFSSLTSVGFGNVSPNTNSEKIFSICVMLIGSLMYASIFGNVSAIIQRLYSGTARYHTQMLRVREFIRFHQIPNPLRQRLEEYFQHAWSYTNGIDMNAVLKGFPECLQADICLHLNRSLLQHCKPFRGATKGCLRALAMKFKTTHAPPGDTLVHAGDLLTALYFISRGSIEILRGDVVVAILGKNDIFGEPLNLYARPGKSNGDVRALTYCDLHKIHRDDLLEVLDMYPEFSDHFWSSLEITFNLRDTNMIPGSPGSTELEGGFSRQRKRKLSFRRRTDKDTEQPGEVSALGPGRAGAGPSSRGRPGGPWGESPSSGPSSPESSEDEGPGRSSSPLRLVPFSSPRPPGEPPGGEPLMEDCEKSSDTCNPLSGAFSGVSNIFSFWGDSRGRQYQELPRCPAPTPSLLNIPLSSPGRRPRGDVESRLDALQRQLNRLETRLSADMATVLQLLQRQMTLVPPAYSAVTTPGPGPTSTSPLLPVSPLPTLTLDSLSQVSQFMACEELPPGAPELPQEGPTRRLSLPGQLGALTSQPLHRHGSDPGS

MARV-Angola = conditions: guinea pig, in vivo
EBOV Kikwit = assay: microbe, parasite or virus in culture; format: cell-based, Ebola virus; conditions: Zaire ebolavirus, HeLa
MARV-Musoke = conditions: guinea pig, in vivo
MARV Ci67 = assay: organism not typed; format: cell-based, Marburg virus; conditions: HeLa
in vitro [4] = conditions: human, s9, half-life (t1/2)
RVFV ZH5018 = assay: microbe, parasite or virus in culture; format: cell-based; conditions: Rift Valley fever virus, HeLa
Marburg virus - Musoke = format: cell-based
in vitro [5] = conditions: human
in vivo [6] = conditions: mouse, iv
HeLa cells = conditions: human
in vitro [7] = conditions: dog, pH 1
JUNV Romero = assay: organism not typed; format: cell-based, Junín virus; conditions: HeLa
[8] = system: EBOV minigenome RNA replicon; format: cell-based, Ebola virus
[9] = rat, in vivo, im
HCV NS5B RNA polymerase = HCV NS5B RNA polymerase (Hepatitis C virus genotype 1b, UniProt P26663); format: biochemical
Sequence of HCV NS5B RNA polymerase (P26663 2420-2989 limits assumed): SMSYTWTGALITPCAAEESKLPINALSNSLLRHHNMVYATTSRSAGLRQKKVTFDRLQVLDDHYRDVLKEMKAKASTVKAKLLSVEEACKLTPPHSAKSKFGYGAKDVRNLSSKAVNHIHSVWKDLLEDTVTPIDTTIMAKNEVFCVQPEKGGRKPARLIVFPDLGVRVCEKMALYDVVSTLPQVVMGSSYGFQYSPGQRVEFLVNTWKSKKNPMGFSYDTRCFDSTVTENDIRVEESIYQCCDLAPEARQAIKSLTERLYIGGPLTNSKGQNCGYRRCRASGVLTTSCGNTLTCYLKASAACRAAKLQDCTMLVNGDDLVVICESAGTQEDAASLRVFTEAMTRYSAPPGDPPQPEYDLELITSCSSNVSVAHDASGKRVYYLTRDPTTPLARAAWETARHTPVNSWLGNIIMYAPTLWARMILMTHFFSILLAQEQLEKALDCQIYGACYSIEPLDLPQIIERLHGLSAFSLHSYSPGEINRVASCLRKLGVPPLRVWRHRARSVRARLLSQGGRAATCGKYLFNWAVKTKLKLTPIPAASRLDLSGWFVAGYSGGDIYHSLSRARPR

filoviruses [10] = conditions: in vivo; cited from earlier work
filoviruses [11] = conditions: cited from earlier work

## Nc1ncnc2c([C@@H]3N[C@H](CO)[C@@H](O)[C@H]3O)c[nH]c12 [BCX4430, (2S,3S,4R,5R)-2-(4-amino-5H-pyrrolo[3,2-d]pyrimidin-7-yl)-5-(hydroxymethyl)pyrrolidine-3,4-diol]
SUDV Boniface
  EC50: 3.4 µM
  EC90: 10.3 µM
Human lymphocytes
  chromosomal aberrations: no detectable chromosomal aberrations
MARV Musoke
  EC50: 4.4 µM
  EC90: 10.5 µM
In vivo [1]
  half-life: < 5 min
Human RNA or DNA
  incorporation of BCX4430-MP into human RNA or DNA: no evidence of BCX4430-MP incorporation
MARV Angola
  EC50: 5 µM
  EC90: 12.3 µM
[2]
  protection against lethal Rift Valley fever virus challenge: protected
In vivo [3]
  half-life: < 5 min
hERG ion channel
  inhibition of hERG ion channel current: did not inhibit
MARV (Musoke variant); cynomolgus monkey, in vivo
  animals surviving: 83%
  haemorrhagic disease manifestations (PT, aPTT, serum AST, bilirubin) vs vehicle: ameliorated
  serum MARV burden: significantly and substantially reduced
  tolerability: well tolerated
MARV (Musoke variant); n = 6
  animals surviving: All animals
MARV-Angola
  post-exposure protection: significant post-exposure protection
  protection: protected
EBOV Kikwit
  EC50: 11.8 µM
  EC90: 25.4 µM
MARV-Musoke
  post-exposure protection: significant post-exposure protection
MARV Ci67
  EC50: 6.7 µM
  EC90: 16.1 µM
In vitro [4]
  half-life: > 54 min
RVFV ZH5018
  EC50: 41.6 µM
  EC90: 98 µM
Marburg virus - Musoke
  production of infectious MARV virus: no detectable infectious MARV virus
In vitro [5]
  CC50: > 296 µM
In vivo [6]
  half-life: < 5 min
HeLa cells
  CC50: 242 µM
In vitro [7]
  CC50: > 296 µM
JUNV Romero
  EC50: 42.2 µM
  EC90: > 100 µM
[8]
  GFP expression in EBOV minigenome replicon assay: reduces expression of green fluorescent protein

## Nc1ncnc2c([C@@H]3N[C@H](COP(=O)(O)OP(=O)(O)OP(=O)(O)O)[C@@H](O)[C@H]3O)c[nH]c12 [BCX4430-TP]
[9]
  half-life in the liver: 372 min
HCV NS5B RNA polymerase
  RNA chain synthesis by HCV RNA polymerase: induces premature termination

## NC(=O)c1nc(F)c[nH]c1=O [T-705, favipiravir]
Filoviruses [10]
  protection against filoviruses in rodents: high-degree of protection

## Nc1nccc2c1ncn2C1C=C(CO)C(O)C1O (stereo not shown) [c^3-Npc A, 3-deazaneplanocin A]
Filoviruses [10]
  protection against filoviruses in rodents: high-degree of protection

## NC(=O)c1ncn([C@@H]2O[C@H](CO)[C@@H](O)[C@H]2O)n1 [ribavirin]
Filoviruses [11]
  activity against filoviruses: not active
